According to EP4796125A1, “TREATMENT OF PATIENT WITH NEGATIVE P53 GENE MUTATION, POSITIVE KRAS GENE MUTATION AND POSITIVE BRCA MUTATION” (Ascentawits Pharmaceuticals, Ltd., priority 2023, dated 2025):

What was measured:
[1] = tested on: H460 cells; assay: Cell cycle G2/M arrest, PI staining and flow cytometry; format: cell-based
Method: • 1) H460/HPAF-II cell suspensions were added to a 24-well plate, with a cell density of 100000 cells/well and 995 µL of medium per well. • 2) The cells were cultured overnight in a 37°C, 5% CO2 incubator. • 3) Compound Treatment
24 hours after cell plating, according to the protocol, the experimental groups for each cell line were as follows: Monotherapy: 24 hours after cell plating, 5 µL of test compounds at different concentrations was added: 1% DMSO, 5 µM Nutlin-3, and 0.1 nM AST-3424. The plate was gently shaken to ensure even mixing, and then placed in a 37°C, 5% CO2 incubator.
• Cells were pretreated with AST-3424 for 2 hours, and then co-treatment with Nutlin-3 for 24 hours; • cells were pretreated with Nutlin-3 for 2 hours, and then co-treatment with AS -3424 for 24 hours; and • cells were co-treated with AST-3424 and Nutlin-3 for 24 hours. • 4) The cells were digested, centrifuged at 1000 g at 4°C, washed once with pre-cooled PBS, centrifuged at 1000 g at 4°C, and fixed with 1 mL of pre-cooled 70% ethanol at - 20°C overnight. • 5) The cells were centrifuged at 3000 g at 4°C, washed once with pre-cooled PBS (phosphate buffer), and centrifuged at 3000g at 4°C. PI staining solution was prepared. The cells were stained at 37°Cfor 30 minutes (protected from light), and stored in an ice bath (protected from light). The cells were detected using a flow cytometer on the same day, and the proportions of cells in different cell cycle phases was analyzed using FlowJo.
The remaining operations were similar to those of the above experiment, and the compound treatment was as follows: […]

[2] = tested on: H460 WT (H460 wild-type cells); assay: In vitro proliferation under normoxia (CTG, 72 hours), Example 26; format: cell-based; conditions: Homo sapiens, NCI-H460, Table 21, AST-3424 alone or + 3 µM AST-3021
Method: • 1) H460 cell suspension was added to a 96-well plate (100 µL per well), with a cell density of 2000 cells/well. • 2) The cells were cultured overnight in a 37°C, 5% CO2 incubator. • 3) Compound Treatment
Monotherapy: 24 hours after cell plating, each well was supplemented with 99.5 µL of growth medium. Then, 0.5 µL of test compounds at different concentrations was added. The plate was gently shaken to ensure even mixing, and then placed in a 37°C, 5% CO2 incubator.
Combination therapy: 24 hours after cell plating, each well was supplemented with 99 µL of growth medium. Then, 0.5 µL of the combination compound Nutlin-3 was added. The plate was gently shaken to ensure even mixing, and then placed in an incubator for 2 hours. Then, 0.5 µL of test compounds at different concentrations was added. […]

[3] = tested on: γH2AX protein in H460 cells; assay: WB detection of γH2AX protein (DNA double-strand damage); format: cell-based; conditions: AST-3424 alone or with 5 µM Nutlin-3, dose-dependent (Figures 24-26)
Description: In the first experiment, the second experiment and the third experiment about the effect of the combination of AST-3424 and Nutlin-3 on Ser15-p53, Ser20-p53, Total p53, MDM2, and p21 proteins in H460 cells in Example 21, the applicant also performed WB detection of γH2AX protein.

[4] = tested on: HPAF-II cells; assay: Applicant's previous cancer cell proliferation inhibition test; format: cell-based; conditions: Homo sapiens, single drug, applicant's previous test data
[5] = tested on: PDX and CDX models with high expression of AKR1C3 enzyme; conditions: WO2023/046060, Examples 1-9; cited from earlier work

Compound: C[C@H](OP(=O)(N1CC1)N1CC1)c1ccc([N+](=O)[O-])c(Oc2cccc(C(=O)N(C)C)c2)c1 [AST-3424]
- cell cycle (G0/G1, S, G2/M phases) ([1]; 0.1 nM AST-3424, 5 µM Nutlin-3, 24 hours, combination: AST-3424 added first (Figure 9)): does not significantly alter the cell cycle
- G2/M cell cycle arrest ([1]; 0.03-1 nM AST-3424 ± 5 µM Nutlin-3 (AST-3424 pre-treatment 2 hours), second experiment (Figure 10)): induces concentration-dependent G2/M cell cycle arrest
- IC50 [2]: 0.00023 µM
- level of γH2AX protein [3]: upregulate
- IC50 [4]: 0.107 µM
- anti-tumor effects [5]: significant anti-tumor effects
- tolerability [5]: well tolerated
